Results as given in patent publication US8871681B2, “Herbicidal compositions comprising 4-amino-3-chloro-5-fluoro-6-(4-chloro-2-fluoro-3-methoxyphenyl) pyridine-2-carboxylic acid or a derivative thereof and certain sulfonylureas” (Dow AgroSciences LLC, priority 2012, dated 2014).

Key:
[1] = system: ECHCO (Echinochloa colona, junglerice); assay: In-water applied weed control, transplanted paddy rice, greenhouse (Example II); format: in vivo, Echinochloa colona (L.) Link
Description: (§1) Weed seeds or nutlets of the desired test plant species were planted in puddled soil (mud) prepared by mixing a shredded, non-sterilized mineral soil (50.5 percent silt, 25.5 percent clay, and 24 percent sand, with a pH of about 7.6 and an organic matter content of about 2.9 percent) and water at a 1:1 volumetric ratio. The prepared mud was dispensed in 365 mL aliquots into 16-ounce (oz.) non-perforated plastic pots with a surface area of 86.59 square centimeters (cm^2) leaving a headspace of 3 centimeters (cm) in each pot. Rice seeds were planted in Sun Gro MetroMix® 306 planting mixture, which typically has a pH of 6.0 to 6.8 and an organic matter content of about 30 percent, in plastic plug trays. Seedlings at the second or third leaf stage of growth were transplanted into 860 mL of mud contained in 32-oz. non-perforated plastic pots with a surface area of 86.59 cm^2 4 days prior to herbicide application. The paddy was created by filling the headspace of the pots with 2.5 to 3 cm of water. When required to ensure good germination and healthy plants, a fungicide treatment and/or other chemical or physical treatment was applied. The plants were grown for 4-22 days in a greenhouse with an approximate 14 h photoperiod which was maintained at about 29′C during the day and 26° C. during the night. Nutrients were added as Osmocote® (19:6:12, N:P:K+minor nutrients) at 2 g per 16-oz. pot and 4 g per 32-oz. pot. Water was added on a regular basis to maintain the paddy flood, and supplemental lighting was provided with overhead metal halide 1000-Watt lamps as necessary. The plants were employed for testing when they reached the first through fourth true leaf stage.
(§2) Treatments consisted of the acid or esters of 4-amino-3-chloro-5-fluoro-6-(4-chloro-2-fluoro-3-methoxy-phenyl)pyridine-2-carboxylic acid (compound A) each formulated as an SC and various herbicidal components alone and in combination. Forms of compound A were applied on an acid equivalent basis.
(§3) Other herbicidal components were applied on an active ingredient basis and included acetolactate synthase (ALS)-inhibiting herbicides (sulfonylurea chemical class), azimsulfuron formulated as Gulliver®, bensulfuron-methyl formulated as Londax® 60DF, cyclosulfamuron (technical grade materail), ethoxysulfuron formulated as Sunrice® 15 WDG, flucetosulfuron formulated as Sukedachi® 1KG G, imazosulfuron formulated as Brazzos®, metsulfuron-methyl formulated as Lorate®, nicosulfuron formulated as Accent®, orthosulfamuron formulated as Strada® WG, propyrisulfuron formulated as Zeta One®, and rimsulfuron formulated as Matrix® WG.
(§4) Treatment requirements for each compound or herbicidal component were calculated based upon the rates being tested, the concentration of active ingredient or acid equivalent in the formulation, an application volume of 2 mL per component per pot, and an application area of 86.59 cm^2 per pot.
(§5) For formulated compounds, a measured amount was placed in an individual 100 or 200 mL glass vial and was dissolved in a volume of 1.25% (v/v) Agri-Dex® crop oil concentrate to obtain application solutions.
(§6) For technical grade compounds, a weighed amount was placed in an individual 100 to 200 mL glass vial and was dissolved in a volume of acetone to obtain concentrated stock solutions. […] The concentrated stock solutions obtained were diluted with an equivalent volume of an aqueous mixture containing 2.5% (v/v) crop oil concentrate so that the final application solutions contained 1.25% (v/v) crop oil concentrate.
(§7) Applications were made by injecting with a pipetter appropriate amounts of the application solutions, individually and sequentially, into the aqueous layer of the paddy. Control plants were treated in the same manner with the solvent blank. Applications were made so that all treated plant material received the same concentrations of acetone and crop oil concentrate. […]

[2] = system: LEFCH (Leptochloa chinensis, Chinese sprangletop); assay: Postemergence foliar-applied weed control, direct seeded rice, greenhouse (Example I); format: in vivo, Leptochloa chinensis (L.) Nees; conditions: Dinebra chinensis, post-emergence, 576 h, 24 DAA, read-out: Visual Weed Control (%) Obs
Excerpt: (§8) Seeds or nutlets of the desired test plant species were planted in a soil matrix prepared by mixing a loam or sandy loam soil (e.g., 28.6 percent silt, 18.8 percent clay, and 52.6 percent sand, with a pH of about 5.8 and an organic matter content of about 1.8 percent) and calcareous grit in an 80 to 20 ratio. The soil matrix was contained in plastic pots with a volume of 1 quart and a surface area of 83.6 square centimeters (cm^2). When required to ensure good germination and healthy plants, a fungicide treatment and/or other chemical or physical treatment was applied. The plants were grown for 8-22 days in a greenhouse with an approximate 14 h photoperiod which was maintained at about 29° C. during the day and 26° C. during the night. Nutrients (Peters Excel® 15-5-15 5-Ca 2-Mg and iron chelate) were applied in the irrigation solution as needed and water was added on a regular basis. Supplemental lighting was provided with overhead metal halide 1000-Watt lamps as necessary. The plants were employed for testing when they reached the first through fourth true leaf stage.
(§9) Treatments consisted of the acid or esters of 4-amino-3-chloro-5-fluoro-6-(4-chloro-2-fluoro-3-methoxy-phenyl)pyridine-2-carboxylic acid (Compound A), each formulated as an SC, and various herbicidal components alone and in combination. Forms of compound A were applied on an acid equivalent basis.
(§10) Other herbicidal components were applied on an active ingredient basis and included acetolactate synthase (ALS)-inhibiting herbicides (sulfonylurea chemical class) azimsulfuron formulated as Gulliver®, bensulfuron-methyl formulated as Londax® 60DF, cyclosulfamuron (technical material), ethoxysulfuron formulated as Sunrice® 15 WDG, flazasulfuron formulated as Katana®, flucetosulfuron formulated as Sukedachi® 1KG G, foramsulfuron formulated as Option®, imazosulfuron formulated as Brazzos® WG, iodosulfuron-methyl-sodium formulated as Hussar®, metsulfuron-methyl formulated as Lorate®, nicosulfuron formulated as Accent®, orthosulfamuron formulated as Strada® WG, primisulfuron-methyl (technical material), propyrisulfuron formulated as Zeta One®, rimsulfuron formulated as Matrix® WG, sulfometuron-methyl formulated as Oust®, and trifloxysulfuron-sodium formulated as Monument® 75WG.
(§11) Treatment requirements were calculated based upon the rates being tested, the concentration of active ingredient or acid equivalent in the formulation, and a 12 mL application volume at a rate of 187 L/ha.
(§12) For treatments comprised of formulated compounds, measured amounts of compounds were placed individually in 25 mL glass vials and diluted in a volume of 1.25% (v/v) Agri-Dex® crop oil concentrated to obtain 12× stock solutions. […] Application solutions were prepared by adding an appropriate amount of each stock solution (e.g., 1 mL) and diluted to the appropriate final concentrations with the addition of 10 mL of an aqueous mixture of 1.25% (v/v) crop oil concentrate so that the final spray solutions contained 1.25+/−0.05% (v/v) Agrcrop oil concentrate.
(§13) For treatments comprised of formulated and technical compounds, weighed amounts of the technical materials were placed individually in 25 mL glass vials and dissolved in a volume of 97:3 v/v acetone/DMSO to obtain 12× stock solutions, and measured amounts of the formulated compounds were placed individually in 25 mL glass vials and diluted in a volume of 1.25% (v/v) crop oil concentrate to obtain 12× stock solutions. […] Application solutions were prepared by adding an appropriate amount of each stock solution (e.g., 1 mL) and diluted to the appropriate final concentrations with the addition of an appropriate amount of an aqueous mixture of 1.5% (v/v) crop oil concentrate so that the final spray solutions contained 1.25% (v/v) crop oil concentrate. […]

[3] = system: SCPMA (Bolboschoenus maritimus or Schoenoplectus maritimus, sea clubrush); assay: In-water applied weed control, transplanted paddy rice, greenhouse (Example II); format: in vivo, Bolboschoenus maritimus (L.) Palla
Outline: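 Transplanted rice and weeds at first to fourth true leaf stage in flooded mud pots (2.5–3 cm water), greenhouse ~29/26 °C day/night. Herbicides alone or mixed, in 1.25% crop oil concentrate (acetone for technical material), injected into the flood; visual 0–100% injury after ~3 weeks, expected mixture effects by Colby.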

[4] = system: DIGSA (Digitaria sanguinalis, large crabgrass); assay: Postemergence foliar-applied weed control, direct seeded rice, greenhouse (Example I); format: in vivo, Digitaria sanguinalis (L.) Scop.
Excerpt: as §8, §9, §10, §11, §12, §13

[5] = system: IPOHE (Ipomoea hederacea, ivyleaf morningglory); assay: as above; format: in vivo, Ipomoea hederacea Jacq.; conditions: 20 DAA
Excerpt: as §8, §9, §10, §11, §12, §13

[6] = system: CYPES (Cyperus esculentus, yellow nutsedge); assay: as above; format: in vivo, Cyperus esculentus L.; conditions: 20 DAA
Excerpt: as §8, §9, §10, §11, §12, §13

[7] = system: CYPRO (Cyperus rotundus, purple nutsedge); assay: In-water applied weed control, transplanted paddy rice, greenhouse (Example II); format: in vivo, Cyperus rotundus L.
Description: as §1, §2, §3, §4, §5, §6, §7

[8] = system: ECHCG (Echinochloa crus-galli, barnyardgrass); assay: as above; format: in vivo, Echinochloa crus-galli (L.) Beauv.
Description: as §1, §2, §3, §4, §5
For technical grade compounds, a weighed amount was placed in an individual 100 to 200 mL glass vial and was dissolved in a volume of acetone to obtain concentrated stock solutions. […]

[9] = system: LEFCH (Leptochloa chinensis, Chinese sprangletop); assay: as above; format: in vivo, Leptochloa chinensis (L.) Nees
Description: as §1, §2, §3, §4, §5, §6, §7

[10] = system: FIMMI (Fimbristylis miliacea, globe fringerush); assay: as above; format: in vivo, Fimbristylis miliacea (L.) Vahl
Description: as §1, §2, §3, §4, §5, §6, §7

[11] = system: BRAPP (Brachiaria platyphylla, broadleaf signalgrass); assay: Postemergence foliar-applied weed control, direct seeded rice, greenhouse (Example I); format: in vivo, Brachiaria platyphylla (Griseb.) Nash; conditions: Urochloa platyphylla, post-emergence, 504 h, 21 DAA, read-out: Visual Weed Control (%) Obs
Outline: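 Greenhouse-grown plants in loam/sandy loam–grit soil (14 h photoperiod, ~29/26 °C) were sprayed postemergence at the first to fourth true leaf stage. Compound A (acid equivalent basis) and ALS-inhibiting sulfonylureas (active ingredient basis) were applied alone and in combination in 1.25% (v/v) crop oil concentrate at 187 L/ha by track sprayer; controls received solvent blank.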

COc1cc(OC)nc(NC(=O)NS(=O)(=O)c2c(Cl)nc3ccccn23)n1 [Imazosulfuron, 2-chloro-N-[[(4,6-dimethoxy-2-pyrimidinyl)amino]carbonyl]imidazo[1,2-a]pyridine-3-sulfonamide, reference compound]
Visual Weed Control (%) - 21 DAA ECHCO Obs ([1]; Table 38, 22.5 gai/ha alone): 20%
Visual Weed Control (%) - 21 DAA ECHCO Obs ([1]; Table 38, 45 gai/ha alone): 20%
Visual Weed Control (%) - 21 DAA ECHCO Obs ([1]; Table 39, 45 gai/ha alone): 20%
pest or weed control at 21 g/ha ([2]; 21 gai/ha): 0%
pest or weed control at 42 g/ha ([2]; 42 gai/ha): 0%
pest or weed control at 84 g/ha ([2]; 84 gai/ha): 0%
Visual Weed Control (%) - 20 DAA SCPMA Obs ([3]; Table 38, 168 gai/ha alone): 65%
Visual Weed Control (%) - 20 DAA SCPMA Obs ([3]; Table 39, 168 gai/ha alone): 65%
Visual Weed Control (%) - 20 DAA SCPMA Obs ([3]; Table 40, 168 gai/ha alone): 65%
Visual Weed Control (%) Obs ([4]; 24 DAA, 21 gai/ha): 0%
Visual Weed Control (%) Obs ([4]; 24 DAA, 42 gai/ha): 0%

CCS(=O)(=O)c1cccnc1S(=O)(=O)NC(=O)Nc1nc(OC)cc(OC)n1 [Rimsulfuron, N-[[(4,6-dimethoxy-2-pyrimidinyl)amino]carbonyl]-3-(ethylsulfonyl)-2-pyridinesulfonamide, reference compound]
Visual Weed Control (%) Obs ([5]; 4.38 gai/ha): 60%
Visual Weed Control (%) Obs ([5]; 8.75 gai/ha): 75%
Visual Weed Control (%) Obs ([6]; 2.19 gai/ha): 0%
Visual Weed Control (%) Obs ([6]; 4.38 gai/ha): 0%
Visual Weed Control (%) Obs ([6]; 8.75 gai/ha): 60%
Visual Weed Control (%) - 20 DAA CYPRO Obs ([7]; Table 49, 4.38 gai/ha alone): 0%
Visual Weed Control (%) - 20 DAA CYPRO Obs ([7]; Table 50, 4.38 gai/ha alone): 0%
Visual Weed Control (%) - 20 DAA ECHCG Obs ([8]; Table 50, 4.38 gai/ha alone): 0%
Visual Weed Control (%) - 20 DAA ECHCG Obs ([8]; Table 50, 8.75 gai/ha alone): 0%
Visual Weed Control (%) Obs ([4]; 20 DAA, 8.75 gai/ha): 70%
Visual Weed Control (%) - 20 DAA LEFCH Obs ([9]; Table 49, 4.38 gai/ha alone): 0%
Visual Weed Control (%) - 20 DAA LEFCH Obs ([9]; Table 50, 4.38 gai/ha alone): 0%
Visual Weed Control (%) - 20 DAA LEFCH Obs ([9]; Table 50, 8.75 gai/ha alone): 30%

CCCc1ccc2nc(Cl)c(S(=O)(=O)NC(=O)Nc3nc(OC)cc(OC)n3)n2n1 [Propyrisulfuron, 2-chloro-N-[[(4,6-dimethoxy-2-pyrimidinyl)amino]carbonyl]-6-propylimidazo[1,2-b]pyridazine-3-sulfonamide, reference compound]
Visual Weed Control (%) - 21 DAA FIMMI Obs ([10]; Table 48, 11.25 gai/ha alone): 85%
Visual Weed Control (%) - 21 DAA FIMMI Obs ([10]; Table 48, 22.5 gai/ha alone): 88%
Visual Weed Control (%) - 21 DAA FIMMI Obs ([10]; Table 48, 45 gai/ha alone): 95%
Visual Weed Control (%) - 21 DAA SCPMA Obs ([3]; Table 48, 11.25 gai/ha alone): 80%
pest or weed control at 11.25 g/ha ([11]; 11.25 gai/ha): 0%
pest or weed control at 22.5 g/ha ([11]; 22.5 gai/ha): 20%
pest or weed control at 45 g/ha ([11]; 45 gai/ha): 10%
Visual Weed Control (%) - 21 DAA LEFCH Obs ([9]; Table 47, 22.5 gai/ha alone): 0%
Visual Weed Control (%) - 21 DAA LEFCH Obs ([9]; Table 47, 45 gai/ha alone): 0%
